Source: PubChem BioAssay (NCI)
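Step 1: Grow cells in 96-well plates. Step 2: Expose to compound for 48 hours at 5 concentrations. Step 3: Interpolate endpoints linearly; if unreached, use highest concentration. Here, GI50 denotes the concentration required for 50% inhibition of growth. TGI marks complete inhibition of growth.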

Assays:
Assay in all cases: NCI-60 cell line screen, 48 h
[1] = system: HCT-116 colon
[2] = system: RXF 393 renal
[3] = system: IGROV1 ovarian
[4] = system: U251 CNS
[5] = system: HS 578T breast
[6] = system: T-47D breast
[7] = system: NCI-H23 lung
[8] = system: SF-295 CNS
[9] = system: HOP-92 NSCLC
[10] = system: BT-549 breast

COc1ccc(Cl)cc1Nc1nc(C(F)(F)F)ccc1C(=O)N/N=C/c1ccc([N+](=O)[O-])cc1
GI50 [1]: 2.45 µM | TGI [1]: 14.7 µM | GI50 [2]: 1.28 µM | TGI [2]: 6.04 µM | GI50 [3]: 2.56 µM | TGI [3]: 6.49 µM | GI50 [4]: 2.06 µM | TGI [4]: 6.63 µM | GI50 [5]: 2.57 µM | TGI [5]: 62.9 µM | GI50 [6]: 1.81 µM | TGI [6]: 7.75 µM | GI50 [7]: 2.05 µM | TGI [7]: 7.52 µM | GI50 [8]: 1.17 µM | TGI [8]: 3.79 µM

COC(=O)[C@H]1[C@H]2C[C@@H]3c4[nH]c5cc(OC)ccc5c4CCN3C[C@H]2C[C@@H](OC(=O)c2cc(OC)c(OC)c(OC)c2)[C@@H]1OC
TGI [1]: 31.5 µM | TGI [3]: 47.1 µM | TGI [4]: 28.2 µM | TGI [7]: 41.7 µM | TGI [8]: 37.7 µM | TGI [9]: 39.9 µM

O=C(CC(=O)c1ccc([N+](=O)[O-])cc1)C(=O)Nc1nccs1
TGI [1]: > 100 µM | TGI [2]: > 100 µM | TGI [3]: > 100 µM | TGI [4]: > 100 µM | TGI [7]: > 100 µM | TGI [9]: > 100 µM

CC(C)N(C(=O)C12C3C4C5C3C1(C(=O)N(C(C)C)C(C)C)C5(C#N)C42)C(C)C (stereo not drawn)
TGI [1]: > 100 µM | TGI [3]: > 100 µM | TGI [4]: > 100 µM | TGI [7]: > 100 µM | TGI [8]: > 100 µM | TGI [9]: > 100 µM

NC(=O)c1cc(-c2ccncc2)cc(-c2ccccc2)c1N
GI50 [1]: > 24 µM | TGI [1]: > 25 µM | GI50 [2]: 5.41 µM | TGI [2]: 24.9 µM | GI50 [3]: 9.48 µM | TGI [3]: > 25 µM | GI50 [4]: > 25 µM | TGI [4]: > 25 µM | GI50 [5]: 6.35 µM | TGI [5]: > 23.6 µM | GI50 [10]: 22.5 µM | TGI [10]: > 25 µM | GI50 [6]: 9.57 µM | TGI [6]: > 25 µM | GI50 [7]: > 25 µM | TGI [7]: > 25 µM | GI50 [8]: > 25 µM | TGI [8]: > 25 µM

[N-]=[N+]=Nc1ccc(CCN2CCN(c3cccc(C(F)(F)F)c3)CC2)cc1I
TGI [1]: > 100 µM | TGI [2]: > 100 µM | TGI [4]: > 100 µM | TGI [7]: > 100 µM | TGI [8]: > 100 µM

CCCN(CCCN)/[N+]([O-])=N\O
TGI [1]: > 100 µM | TGI [2]: > 100 µM | TGI [3]: > 100 µM | TGI [4]: > 100 µM | TGI [7]: > 100 µM | TGI [8]: > 100 µM | TGI [9]: > 100 µM

Cc1cc(N2CCN(C)CC2)nc(NCc2cc(Nc3ccnc4cc(Cl)ccc34)ccc2F)n1
GI50 [1]: 1.5 µM | TGI [1]: 3.3 µM | GI50 [2]: 1.63 µM | TGI [2]: 3.82 µM | GI50 [3]: 2.04 µM | TGI [3]: 7.26 µM | GI50 [4]: 1.87 µM | TGI [4]: 3.73 µM | GI50 [5]: 2.82 µM | TGI [5]: 7.97 µM | GI50 [10]: 2.13 µM | TGI [10]: 4.64 µM | GI50 [6]: 1.09 µM | TGI [6]: 3.62 µM | GI50 [7]: 3.46 µM | TGI [7]: > 100 µM | GI50 [8]: 1.68 µM | TGI [8]: 3.24 µM

CN1C(OCc2ccccc2)c2c(ccc3c2OCO3)C2C=Cc3cc4c(cc3C21)OCO4 (stereo not drawn)
TGI [1]: 1.44 µM | TGI [2]: 2.31 µM | TGI [3]: 2.09 µM | TGI [4]: 2.84 µM | TGI [7]: 2.68 µM | TGI [8]: 2.81 µM | TGI [9]: 2.3 µM

N#CCCN(CCC#N)C(=O)c1cccc(C(=O)N(CCC#N)CCC#N)c1
TGI [1]: 99.4 µM | TGI [2]: 9.76 µM | TGI [3]: > 100 µM | TGI [4]: > 59.4 µM | TGI [7]: > 56 µM | TGI [8]: > 100 µM | TGI [9]: > 100 µM

CCC1=C(C)/C(=C/c2[nH]c(C(Br)Br)c(CC)c2C)N=C1C(Br)Br
TGI [1]: > 100 µM | TGI [2]: 78.9 µM | TGI [3]: > 100 µM | TGI [4]: 86.4 µM | TGI [7]: > 100 µM | TGI [8]: 98.2 µM | TGI [9]: > 100 µM
